From US7553972B2, “Benzamide inhibitors of the P2X7 receptor” (Pfizer, Inc., priority 2003, dated 2009) come the findings set out here.

Structures are written as SMILES.

The first assay addresses T1, P2X7 receptor (Homo sapiens, UniProt Q99572).
T1 construct: endogenous in cells
T1 sequence (Q99572 1-595): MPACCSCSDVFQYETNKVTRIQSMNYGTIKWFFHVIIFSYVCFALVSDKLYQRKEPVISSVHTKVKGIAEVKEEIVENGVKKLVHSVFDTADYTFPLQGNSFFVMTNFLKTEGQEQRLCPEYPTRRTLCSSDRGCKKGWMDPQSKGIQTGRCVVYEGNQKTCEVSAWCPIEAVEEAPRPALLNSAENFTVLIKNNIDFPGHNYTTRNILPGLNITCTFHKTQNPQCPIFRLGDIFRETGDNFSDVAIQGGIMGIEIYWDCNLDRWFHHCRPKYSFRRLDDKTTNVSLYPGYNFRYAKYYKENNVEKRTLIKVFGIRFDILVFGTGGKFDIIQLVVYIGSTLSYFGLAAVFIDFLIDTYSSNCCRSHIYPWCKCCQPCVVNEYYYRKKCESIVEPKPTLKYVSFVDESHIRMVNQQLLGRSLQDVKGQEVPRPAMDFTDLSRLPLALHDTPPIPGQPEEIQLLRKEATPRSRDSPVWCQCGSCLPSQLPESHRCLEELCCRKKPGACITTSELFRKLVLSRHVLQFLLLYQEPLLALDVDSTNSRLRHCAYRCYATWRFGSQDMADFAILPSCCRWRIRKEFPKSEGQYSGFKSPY
Description: Inhibition of ATP-stimulated IL-1β release from LPS-activated blood monocytes (P2X7 antagonist activity, ELISA readout). In kind it is cell-based.
Settings: not given
How it is done:
In like manner, the compounds of the invention can be tested for antagonist activity at the P2X7 receptor using the cytokine IL-1β as the readout. Blood collected from normal volunteers in the presence of heparin is fractionated using lymphocyte separation medium obtained from Organon Technica (Westchester, Pa.). […] The resulting cell pellet was suspended in 10 ml of Maintenance Medium and a cell count was performed. In an average experiment, 2×10^5 mononuclear cells are seeded into each well of 96-well plates in a total volume of 0.1 ml. Monocytes are allowed to adhere for 2 hours, after which the supernatants are discarded and the attached cells are rinsed twice and then incubated in Maintenance Medium overnight at 37° C. in a 5% CO2 environment.
The cultured monocytes can be activated with 10 ng/ml LPS (E. coli serotype 055:B5; Sigma Chemicals, St. Louis, Mo.). […] ATP then is introduced (from a 100 mM stock solution, pH 7) to achieve a final concentration of 2 mM and the plate is incubated at 37° C. for an additional 3 hours. Media were harvested and clarified by centrifugation, and their IL-1[…] content was determined by ELISA (R&D Systems; Minneapolis, Minn.).
Blood was collected from normal volunteers in the presence of heparin, and was fractionated using lymphocyte separation medium obtained from Organon Technica (Westchester, Pa.). […] The resulting cell pellet was suspended in 10 ml of Maintenance Medium and a cell count was performed. Approximately, 2×10^5 mononuclear cells were seeded into each well of 96-well plates in a total volume of 0.1 ml. Monocytes were allowed to adhere for 2 hours, after which the supernatants were discarded and the attached cells were rinsed twice and then incubated in Maintenance Medium overnight at 37° C. in a 5% CO2 environment.
The cultured monocytes were activated with 10 ng/ml LPS (E. coli serotype 055:B5; Sigma Chemicals, St. Louis, Mo.). […] ATP then was introduced (from a 100 mM stock solution, pH 7) to achieve a final concentration of 2 mM and the plate was incubated at 37° C. for an additional 3 hours. Media were harvested and clarified by centrifugation, and their IL-1β content was determined by ELISA (R&D Systems; Minneapolis, Minn.).
For orientation: In an ELISA, binding on a coated surface is turned into a signal by an enzyme label.
As for `Cc1nc(-c2ccc(Cl)c(C(=O)NCC3(O)CCCCCC3)c2)cs1` [Example 59, 2-Chloro-N-(1-hydroxy-cycloheptylmethyl)-5-(2-methyl-thiazol-4-yl)-benzamide], the IC50 (as a rule, the point on the concentration scale where inhibition reaches its midpoint) turned out to be 280 nM.

The assay is the same for the next values; noted with them: monocytes from normal volunteers, 10 ng/ml LPS 2 h, compound 30 min, 2 mM ATP 3 h, IL-1β by ELISA, triplicate wells; read-out: IC50 (inhibit 50% of the stimulation of the release of IL-1β from monocytes by ATP).
On to `COc1ccc(Cn2cc(-c3ccc(Cl)c(C(=O)NCCc4ccccc4Cl)c3)cn2)cc1` [Example 6, 2-Chloro-N-[2-(2-chloro-phenyl)-ethyl]-5-[1-(4-methoxy-benzyl)-1H-pyrazol-4-yl]-benzamide], for which the IC50 is 1400 nM.

For the molecule `O=C(NCC1(O)CCCCCC1)c1cc(-c2ccn(CCO)n2)ccc1Cl` [Example 27, 2-Chloro-N-(1-hydroxy-cycloheptylmethyl)-5-[1-(2-hydroxy-ethyl)-1H-pyrazol-3-yl]-benzamide], the IC50 turned out to be 31 nM.

In the case of `Cc1cc(-c2ccc(Cl)c(C(=O)NCC3(O)CCCCCC3)c2)nn1C[C@@](C)(O)CO` [Example 45, 2-Chloro-5-[1-(2,3-dihydroxy-2-methyl-propyl)-5-methyl-1H-pyrazol-3-yl]-N-(1-hydroxy-cycloheptylmethyl)-benzamide], the IC50 was found to be 6 nM.

Take `Cc1cc(-c2ccc(Cl)c(C(=O)NCC3(O)CCCCCC3)c2)nn1CC(C)(C)O` [Example 42, 2-Chloro-N-(1-hydroxy-cycloheptylmethyl)-5-[1-(2-hydroxy-2-methyl-propyl)-5-methyl-1H-pyrazol-3-yl]-benzamide]: the IC50 was found to be 8 nM. As for `Cc1cc(-c2ccc(Cl)c(C(=O)NCC3(O)CCCCCC3)c2)nn1CC(=O)N1C[C@H](O)[C@@H](O)C1` [Example 53, 2-Chloro-5-{1-[2-(3,4-dihydroxy-pyrrolidin-1-yl)-2-oxo-ethyl]-5-methyl-1H-pyrazol-3-yl}-N-(1-hydroxy-cycloheptylmethyl)-benzamide], the IC50 came to 15.5 nM. On the same count and under the same terms, with `Cc1cc(-c2ccc(Cl)c(C(=O)NCC3(O)CCCCCC3)c2)nn1C[C@@H](O)CN` [Example 54, 5-[1-(3-Amino-2-hydroxy-propyl)-5-methyl-1H-pyrazol-3-yl]-2-chloro-N-(1-hydroxy-cycloheptylmethyl)-benzamide] the figure was 5 nM; with `O=C(NCC1(O)CCCCCC1)c1cc(-c2ccnn2CCO)ccc1Cl` [Example 26, 2-Chloro-N-(1-hydroxy-cycloheptylmethyl)-5-[2-(2-hydroxy-ethyl)-2H-pyrazol-3-yl]-benzamide], 373 nM. Turning to `COc1ccc(-c2ccc(Cl)c(C(=O)NCC3(O)CCCCCC3)c2)nn1` [Example 4, 2-Chloro-N-(1-hydroxy-cycloheptylmethyl)-5-(6-methoxy-pyridazin-3-yl)-benzamide], the IC50 is 280 nM. Same read-out and setting: with `O=C(NCCc1ccccc1Cl)c1cc(-c2cc[nH]n2)ccc1Cl` [Example 18, 2-Chloro-N-[2-(2-chloro-phenyl)-ethyl]-5-(1H-pyrazol-3-yl)-benzamide] the figure was 545 nM; with `Cc1ccc(-c2ccc(Cl)c(C(=O)NCCc3ccccc3Cl)c2)nc1` [Example 7, 2-Chloro-N-[2-(2-chloro-phenyl)-ethyl]-5-(5-methyl-pyridin-2-yl)-benzamide], 1660 nM; with `Cn1ccc(-c2ccc(Cl)c(C(=O)NCC3(O)CCCCCC3)c2)n1` [Example 29, 2-Chloro-N-(1-hydroxy-cycloheptylmethyl)-5-(1-methyl-1H-pyrazol-3-yl)-benzamide], 242 nM. The same measure, in the same setting: in the case of `Cc1cc(-c2ccc(Cl)c(C(=O)NCC3(C#N)CCCCCC3)c2)[nH]n1` [Example 21, 2-Chloro-N-(1-cyano-cycloheptylmethyl)-5-(5-methyl-2H-pyrazol-3-yl)-benzamide] it was 46 nM; in that of `Cc1cc(-c2ccc(Cl)c(C(=O)NCC3(O)CCCCCC3)c2)n(C[C@@H](O)CO)n1` [Example 43, 2-Chloro-5-[2-(2,3-dihydroxy-propyl)-5-methyl-2H-pyrazol-3-yl]-N-(1-hydroxy-cycloheptylmethyl)-benzamide], 130 nM.

Consider `O=C(NCCc1ccccc1Cl)c1cc(-c2cn[nH]c2)ccc1Cl` [Example 10, 2-Chloro-N-[2-(2-chloro-phenyl)-ethyl]-5-(1H-pyrazol-4-yl)-benzamide], for which the IC50 turned out to be 800 nM. Still for that read-out and setting: with `O=C(NCC1(O)CCCCCC1)c1cc(-c2cc(C3CC3)[nH]n2)ccc1Cl` [Example 22, 2-Chloro-5-(5-cyclopropyl-1H-pyrazol-3-yl)-N-(1-hydroxy-cycloheptylmethyl)-benzamide] the figure was 50 nM. Still for that read-out and setting: with `Cc1cc(-c2ccc(Cl)c(C(=O)NCC3(O)CCCCCC3)c2)nn1CC(=O)NC(CO)CO` [Example 50, 2-Chloro-N-(1-hydroxy-cycloheptylmethyl)-5-{1-[(2-hydroxy-1-hydroxymethyl-ethylcarbamoyl)-methyl]-5-methyl-1H-pyrazol-3-yl}-benzamide] the figure was 5 nM. Regarding `O=C(NCC1(O)CCCCCC1)c1cc(-c2cn(CC(O)CF)cn2)ccc1Cl` (stereo not shown) [Example 57, 2-Chloro-5-[1-(3-fluoro-2-hydroxy-propyl)-1H-imidazol-4-yl]-N-(1-hydroxy-cycloheptylmethyl)-benzamide], the IC50 was over 1000 nM. Same read-out and setting: with `Cc1cc(-c2ccc(Cl)c(C(=O)NCC3(O)CCCCCC3)c2)nn1CC(O)CN` (stereo not shown) [Example 44, 5-[1-(3-Amino-2-hydroxy-propyl)-5-methyl-1H-pyrazol-3-yl]-2-chloro-N-(1-hydroxy-cycloheptylmethyl)-benzamide] the figure was 2.5 nM; with `Cc1cc(-c2ccc(Cl)c(C(=O)NCC3(O)CCCCCC3)c2)n(CCO)n1` [Example 31, 2-Chloro-N-(1-hydroxy-cycloheptylmethyl)-5-[2-(2-hydroxy-ethyl)-5-methyl-2H-pyrazol-3-yl]-benzamide], 70 nM; with `O=C(NCC1(O)CCCCCC1)c1cc(-c2ccc(=O)n(CCO)n2)ccc1Cl` [Example 38, 2-Chloro-N-(1-hydroxy-cycloheptylmethyl)-5-[1-(2-hydroxy-ethyl)-6-oxo-1,6-dihydro-pyridazin-3-yl]-benzamide], 245 nM. `O=C(NCC1(O)CCCCCC1)c1cc(-c2ccc(=O)[nH]n2)ccc1Cl` [Example 5, 2-Chloro-N-(1-hydroxy-cycloheptylmethyl)-5-(6-oxo-1,6-dihydro-pyridazin-3-yl)-benzamide]: the IC50 amounted to 930 nM.

Turning to `CCc1cc(-c2ccc(Cl)c(C(=O)NCCc3ccccc3Cl)c2)[nH]n1` [Example 16, 2-Chloro-N-[2-(2-chloro-phenyl)-ethyl]-5-(5-ethyl-2H-pyrazol-3-yl)-benzamide], the IC50 is 370 nM. In the case of `NCCn1ccc(-c2ccc(Cl)c(C(=O)NCC3(O)CCCCCC3)c2)n1` [Example 32, 5-[1-(2-Amino-ethyl)-1H-pyrazol-3-yl]-2-chloro-N-(1-hydroxy-cycloheptylmethyl)-benzamide], the IC50 worked out at 38 nM. On the same count and under the same terms, with `Cc1cc(-c2ccc(Cl)c(C(=O)NCC3(O)CCCCCC3)c2)on1` [Example 12, 2-Chloro-N-(1-hydroxy-cycloheptylmethyl)-5-(3-methyl-isoxazol-5-yl)-benzamide] the figure was 240 nM; with `O=C(NCC1(O)CCCCCC1)c1cc(-c2cc(CCO)on2)ccc1Cl` [Example 58, 2-Chloro-N-(1-hydroxy-cycloheptylmethyl)-5-[5-(2-hydroxy-ethyl)-isoxazol-3-yl]-benzamide], 430 nM; with `CCc1cc(-c2ccc(Cl)c(C(=O)NCC3(O)CCCCCC3)c2)[nH]n1` [Example 15, 2-Chloro-5-(5-ethyl-2H-pyrazol-3-yl)-N-(1-hydroxy-cycloheptylmethyl)-benzamide], 23 nM. For `Cc1cc(-c2ccc(Cl)c(C(=O)NCC3(O)CCCCCC3)c2)nn1CC#N` [Example 36, 2-Chloro-5-(1-cyanomethyl-5-methyl-1H-pyrazol-3-yl)-N-(1-hydroxy-cycloheptylmethyl)-benzamide], the IC50 came out at 51 nM.
